In ChEMBL document CHEMBL1201862, “PubChem BioAssay data set” (2004):
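These data come from cells grown in 96-well plates and exposed to compound for 48 hours at five concentrations. GI50 = concentration required for 50% inhibition of growth.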 The source made the active and inactive calls. No stated cut-off is given here; in the data, active = GI50 up to about 1.1 µM and inactive = higher.

Key:
Assay in all cases: NCI tumour cell line growth inhibition, 48 h
SNB-75 = tested on: SNB-75
SK-MEL-2 = tested on: SK-MEL-2
SF-268 = tested on: SF-268
U-251 = tested on: U-251
SK-MEL-5 = tested on: SK-MEL-5
RPMI-8226 = tested on: RPMI-8226
OVCAR-8 = tested on: OVCAR-8
UACC-257 = tested on: UACC-257
HCC 2998 = tested on: HCC 2998
HL-60 = tested on: HL-60
LOX IMVI = tested on: LOX IMVI
MDA-MB-435 = tested on: MDA-MB-435
SK-OV-3 = tested on: SK-OV-3
786-0 = tested on: 786-0
NCI-H23 = tested on: NCI-H23
DU-145 = tested on: DU-145
SN12C = tested on: SN12C
COLO 205 = tested on: COLO 205
NCI-H522 = tested on: NCI-H522
SNB-19 = tested on: SNB-19

Measured: GI50

Cc1cccc(NC(=O)O/N=C(\Cl)C(C)C)c1
inactive: SNB-75 18.1 µM | SK-MEL-2 17.7 µM | SF-268 20 µM | U-251 20.7 µM | SK-MEL-5 16.4 µM | RPMI-8226 2.96 µM | OVCAR-8 19.4 µM | UACC-257 17.3 µM | HCC 2998 19.1 µM | HL-60 1.94 µM | LOX IMVI 1.83 µM | MDA-MB-435 14.5 µM | SK-OV-3 17.7 µM | 786-0 2 µM | NCI-H23 15.1 µM | DU-145 18.6 µM | SN12C 3.37 µM | COLO 205 2.01 µM | NCI-H522 1.54 µM | SNB-19 20.3 µM

COc1nc(-c2cn(S(=O)(=O)c3ccc(C)cc3)c3ccc(Br)cc23)cc(C(F)(F)F)c1C#N
inactive: SNB-75 23.3 µM | SK-MEL-2 65.6 µM | SF-268 53.2 µM | U-251 16.9 µM | SK-MEL-5 77.6 µM | RPMI-8226 14.9 µM | OVCAR-8 25.6 µM | UACC-257 53.1 µM | HCC 2998 85.9 µM | HL-60 86.7 µM | LOX IMVI 23.7 µM | MDA-MB-435 81.1 µM | SK-OV-3 21 µM | NCI-H23 18.8 µM | DU-145 16.5 µM | SN12C 45.1 µM | COLO 205 > 100 µM | NCI-H522 47.9 µM | SNB-19 25.9 µM

COC(C)(C)CCc1[nH]c2ccccc2c1CC(=O)NCCc1cncn1C
inactive: SNB-75 > 100 µM | SK-MEL-2 > 100 µM | SF-268 > 100 µM | U-251 > 100 µM | SK-MEL-5 > 100 µM | RPMI-8226 > 100 µM | OVCAR-8 > 100 µM | UACC-257 > 100 µM | HCC 2998 > 100 µM | HL-60 > 100 µM | LOX IMVI > 100 µM | MDA-MB-435 > 100 µM | SK-OV-3 > 100 µM | 786-0 > 100 µM | NCI-H23 > 100 µM | DU-145 > 100 µM | SN12C > 100 µM | COLO 205 > 100 µM | NCI-H522 > 100 µM | SNB-19 > 100 µM

O=c1[nH]nc(Cc2ccccc2)n1/N=C/c1cccnc1
inactive: SNB-75 > 100 µM | SF-268 > 100 µM | U-251 > 100 µM | SK-MEL-5 > 100 µM | RPMI-8226 > 100 µM | OVCAR-8 > 100 µM | UACC-257 > 100 µM | HCC 2998 > 100 µM | HL-60 > 100 µM | LOX IMVI > 100 µM | MDA-MB-435 > 100 µM | 786-0 > 100 µM | NCI-H23 > 100 µM | DU-145 > 100 µM | SN12C > 100 µM | COLO 205 > 100 µM | NCI-H522 > 100 µM | SNB-19 > 100 µM

C=C(C(=O)O)[C@@H]1C[C@@H](OC(C)=O)[C@]2(C)CC/C=C(\C)CCC[C@H](C)[C@H](O)[C@@H]1O2
inactive: SNB-75 74.8 µM | SK-MEL-2 71.8 µM | SF-268 > 100 µM | U-251 > 100 µM | SK-MEL-5 30.2 µM | RPMI-8226 17 µM | OVCAR-8 27.5 µM | UACC-257 47 µM | HCC 2998 > 100 µM | HL-60 22.3 µM | LOX IMVI 30.3 µM | MDA-MB-435 24.2 µM | SK-OV-3 34.5 µM | 786-0 44.5 µM | DU-145 83.9 µM | SN12C 60.4 µM | COLO 205 33.1 µM | NCI-H522 18 µM

CC1CN=C(Nc2cccc(C(F)(F)F)c2)S1 (centres undefined)
inactive: SNB-75 88.1 µM | SK-MEL-2 77.6 µM | SF-268 44 µM | U-251 54.7 µM | RPMI-8226 23.4 µM | UACC-257 52.5 µM | HCC 2998 > 100 µM | HL-60 20.7 µM | LOX IMVI 43.5 µM | MDA-MB-435 53.1 µM | SK-OV-3 94.4 µM | NCI-H23 36.1 µM | DU-145 70.8 µM | NCI-H522 42.4 µM | SNB-19 95.5 µM

N#CC(C#N)=Cc1c[nH]c(=O)[nH]c1=O
inactive: SNB-75 > 100 µM | SK-MEL-2 > 100 µM | SF-268 > 100 µM | U-251 > 100 µM | SK-MEL-5 > 100 µM | RPMI-8226 > 100 µM | OVCAR-8 > 100 µM | UACC-257 > 100 µM | HL-60 > 100 µM | LOX IMVI > 100 µM | MDA-MB-435 > 100 µM | SK-OV-3 > 100 µM | 786-0 > 100 µM | NCI-H23 > 100 µM | DU-145 > 100 µM | SN12C > 100 µM | COLO 205 > 100 µM | NCI-H522 41 µM | SNB-19 > 100 µM
